From US20260365647A1, “AKT1 MODULATORS” (Alterome Therapeutics, Inc., priority 2022, published 2026)

Target: T1, AKT1-E17K (Homo sapiens, UniProt P31749, E17K)
T1 construct: host or cells: HEK-293 (ATCC CRL-1573)
Test: NanoBRET Target Engagement (TE) Assay
Type: cell-based
Description: The NanoBRET™ Target Engagement (TE) Intracellular Kinase Assays are based on the NanoBRET™ System (Promega Corporation), an energy transfer technique designed to measure molecular proximity in living cells. The NanoBRET™ TE Assays measure the apparent affinity of test compounds by competitive displacement of the NanoBRET™ tracer compound, which is a cell permeable molecule engineered to be reversibly bound to a NanoLuc® luciferase-kinase fusion expressed in cells. For compound screening, when a test compound binds to the selected kinase, the BRET signal is attenuated. […] All cells were evaluated for viability prior to transfection and optimization of the transfection was done prior to experimentation. […] Following transfection, cells were washed and resuspended in Opti-MEM. NanoBRET assays were performed in white, 384-well plates (Corning) at a density of […]. All example compounds were prepared as concentrated stock solutions in DMSO (Sigma-Aldrich). Compounds are dissolved in DMSO to make 10 mM stock solution. […] A Labcyte ECHO 550 compound dispenser was used to facilitate compound transfer directly to cells. Cells were equilibrated for 2 hr with energy transfer probes and example compound prior to BRET measurements. […] For target engagement analysis, the energy transfer probes were added to the cells at concentrations optimized for the target in question (AKT E17K). Following compound incubation, NanoBRET NanoGlo Substrate (Promega Cat #N157D) and Extracellular Nanoluc Inhibitor (Promega Cat #N235C) was added according to the manufacturer's recommended protocol, and luminescence was measured on Envision Reader (Perkin Elmer) Multimode Luminometer equipped with 450 nmBPfilter (donor) and 600 nmLPfilter (acceptor), using 0.5 s integration time. Milli-BRET units (mBU) are calculated by multiplying the raw BRET values by 1000. Apparent tracer affinity values (EC50) were determined using the sigmoidal dose-response (variable slope). Competitive displacement data were then plotted and data were fit to determine the EC50 value for each example compound.

T1 sequence (P31749 whole entry E17K): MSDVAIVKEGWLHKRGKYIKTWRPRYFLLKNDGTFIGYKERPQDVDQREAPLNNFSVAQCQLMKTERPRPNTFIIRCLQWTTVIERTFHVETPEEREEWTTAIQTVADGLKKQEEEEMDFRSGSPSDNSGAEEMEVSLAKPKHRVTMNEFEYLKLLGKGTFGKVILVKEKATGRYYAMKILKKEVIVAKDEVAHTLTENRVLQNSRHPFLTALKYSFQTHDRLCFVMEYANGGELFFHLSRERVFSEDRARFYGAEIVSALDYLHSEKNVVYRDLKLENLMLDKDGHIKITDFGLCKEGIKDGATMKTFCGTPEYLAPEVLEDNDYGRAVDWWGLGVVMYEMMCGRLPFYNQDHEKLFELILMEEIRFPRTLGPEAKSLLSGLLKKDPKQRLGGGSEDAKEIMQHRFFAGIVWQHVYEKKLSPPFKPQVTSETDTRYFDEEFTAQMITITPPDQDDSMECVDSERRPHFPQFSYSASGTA

IC50	SMILES
60 to 600 nM	Nc1ncccc1-c1nc2ccc(-c3cccc(F)c3)nc2n1-c1ccc(CN2CCN(C(=O)c3ccc(C=O)c(O)c3)CC2)cc1 [Example 41, 4-(4-(4-(2-(2-Aminopyridin-3-yl)-5-(3-fluorophenyl)-3H-imidazo[4,5-b]pyridin-3-yl)benzyl)piperazine-1-carbonyl)-2-hydroxybenzaldehyde]
60 to 600 nM	Nc1ncccc1-c1nc2ccc(-c3cccc(Cl)c3)nc2n1-c1ccc(CN2CCN(C(=O)c3ccc(O)c(C=O)c3)CC2)cc1 [Example 42, 5-(4-(4-(2-(2-Aminopyridin-3-yl)-5-(3-chlorophenyl)-3H-imidazo[4,5-b]pyridin-3-yl)benzyl)piperazine-1-carbonyl)-2-hydroxybenzaldehyde]
60 to 600 nM	Nc1ncccc1-c1nc2ccc(-c3cccc(Cl)c3)nc2n1-c1ccc(CN2CCN(C(=O)c3ccc(C=O)c(O)c3)CC2)cc1 [Example 43, 4-(4-(4-(2-(2-Aminopyridin-3-yl)-5-(3-chlorophenyl)-3H-imidazo[4,5-b]pyridin-3-yl)benzyl)piperazine-1-carbonyl)-2-hydroxybenzaldehyde]
> 600 nM	Cn1cc(-c2ccc3nc(-c4cccnc4N)n(-c4ccc(CN5CCN(C(=O)c6ccc(O)c(C=O)c6)CC5)cc4)c3n2)ccc1=O [Example 44, 5-(4-(4-(2-(2-aminopyridin-3-yl)-5-(1-methyl-6-oxo-1,6-dihydropyridin-3-yl)-3H-imidazo[4,5-b]pyridin-3-yl)benzyl)piperazine-1-carbonyl)-2-hydroxybenzaldehyde]
> 600 nM	Nc1ncccc1-c1nc2ccc(-c3cccc(=O)[nH]3)nc2n1-c1ccc(CN2CCN(C(=O)c3ccc(O)c(C=O)c3)CC2)cc1 [Example 45, 5-(4-(4-(2-(2-Aminopyridin-3-yl)-5-(6-oxo-1,6-dihydropyridin-2-yl)-3H-imidazo[4,5-b]pyridin-3-yl)benzyl)piperazine-1-carbonyl)-2-hydroxybenzaldehyde]
> 600 nM	Nc1ncccc1-c1nc2ccc(-c3cccc(=O)[nH]3)nc2n1-c1ccc(CN2CCN(C(=O)c3ccc(C=O)c(O)c3)CC2)cc1 [Example 46, 4-(4-(4-(2-(2-Aminopyridin-3-yl)-5-(6-oxo-1,6-dihydropyridin-2-yl)-3H-imidazo[4,5-b]pyridin-3-yl)benzyl)piperazine-1-carbonyl)-2-hydroxybenzaldehyde]
60 to 600 nM	Nc1ncccc1-c1nc2ccc(-c3ccccc3)nc2n1-c1ccc(CN2CCC(Nc3ccc(C=O)c(O)c3)CC2)cc1 [Example 47, 4-((1-(4-(2-(2-Aminopyridin-3-yl)-5-phenyl-3H-imidazo[4,5-b]pyridin-3-yl)benzyl)piperidin-4-yl)amino)-2-hydroxybenzaldehyde]
60 to 600 nM	Nc1ncccc1-c1nc2ccc(-c3ccccc3)nc2n1-c1ccc(CN2CCC(Nc3ccc(O)c(C=O)c3)CC2)cc1 [Example 48, 5-((1-(4-(2-(2-Aminopyridin-3-yl)-5-phenyl-3H-imidazo[4,5-b]pyridin-3-yl)benzyl)piperidin-4-yl)amino)-2-hydroxybenzaldehyde]
15 to 60 nM	Nc1ncccc1-c1nc2ccc(-c3ccccc3)nc2n1-c1ccc(CN2CCC(NC(=O)c3cccc(C=O)c3O)CC2)cc1 [Example 49, N-(1-(4-(2-(2-aminopyridin-3-yl)-5-phenyl-3H-imidazo[4,5-b]pyridin-3-yl)benzyl)piperidin-4-yl)-3-formyl-2-hydroxybenzamide]
15 to 60 nM	Nc1ncccc1-c1nc2ccc(-c3ccccc3)nc2n1-c1ccc(CN2CCC(Nc3cccc(C=O)c3O)CC2)cc1 [Example 50, 3-((I-(4-(2-(2-Aminopyridin-3-yl)-5-phenyl-3H-imidazo[4,5-b]pyridin-3-yl)benzyl)piperidin-4-yl)amino)-2-hydroxybenzaldehyde]
60 to 600 nM	Nc1ncccc1-c1nc2ccc(-c3ccccc3)nc2n1-c1ccc(CN2CCC(Nc3cccc(O)c3C=O)CC2)cc1 [Example 51, 2-((1-(4-(2-(2-Aminopyridin-3-yl)-5-phenyl-3H-imidazo[4,5-b]pyridin-3-yl)benzyl)piperidin-4-yl)amino)-6-hydroxybenzaldehyde]
15 to 60 nM	Nc1ncccc1-c1nc2ccc(N3CCOCC3)nc2n1-c1ccc(CN2CCC(NC(=O)c3ccc(O)c(C=O)c3)CC2)cc1 [Example 52, N-(1-(4-(2-(2-Aminopyridin-3-yl)-5-morpholino-3H-imidazo[4,5-b]pyridin-3-yl)benzyl)piperidin-4-yl)-3-formyl-4-hydroxybenzamide]
60 to 600 nM	Nc1ncccc1-c1nc2ccc(N3CCOCC3)nc2n1-c1ccc(CN2CCC(NC(=O)c3ccc(C=O)c(O)c3)CC2)cc1 [Example 53, N-(1-(4-(2-(2-Aminopyridin-3-yl)-5-morpholino-3H-imidazo[4,5-b]pyridin-3-yl)benzyl)piperidin-4-yl)-4-formyl-3-hydroxybenzamide]
60 to 600 nM	Nc1ncccc1-c1nc2cc(-c3ccccc3)cnc2n1-c1ccc(CN2CCN(c3ccc(C=O)c(O)c3)CC2)cc1 [Example 54, 4-(4-(4-(2-(2-Aminopyridin-3-yl)-6-phenyl-3H-imidazo[4,5-b]pyridin-3-yl)benzyl)piperazin-1-yl)-2-hydroxybenzaldehyde]
15 to 60 nM	CN(C(=O)c1ccc(O)c(C=O)c1)C1CCN(Cc2ccc(-n3c(-c4cccnc4N)nc4ccc(-c5ccccc5)nc43)cc2)CC1 [Example 55, N-(1-(4-(2-(2-Aminopyridin-3-yl)-5-phenyl-3H-imidazo[4,5-b]pyridin-3-yl)benzyl)piperidin-4-yl)-3-formyl-4-hydroxy-N-methylbenzamide]
60 to 600 nM	Nc1ncccc1-c1nc2ccc(-c3ccccc3)nc2n1-c1ccc(CN2C[C@H]3C[C@@H]2CN3C(=O)c2ccc(C=O)c(O)c2)cc1 [Example 56, 4-((1R,4R)-5-(4-(2-(2-Aminopyridin-3-yl)-5-phenyl-3H-imidazo[4,5-b]pyridin-3-yl)benzyl)-2,5-diazabicyclo[2.2.1]heptane-2-carbonyl)-2-hydroxybenzaldehyde]
60 to 600 nM	CN(c1ccc(C=O)c(O)c1)C1CCN(Cc2ccc(-n3c(-c4cccnc4N)nc4ccc(-c5ccccc5)nc43)cc2)CC1 [Example 57, 4-((1-(4-(2-(2-Aminopyridin-3-yl)-5-phenyl-3H-imidazo[4,5-b]pyridin-3-yl)benzyl)piperidin-4-yl)(methyl)amino)-2-hydroxybenzaldehyde]
15 to 60 nM	Nc1ncccc1-c1nc2ccc(-c3ccccc3)nc2n1-c1ccc(CN2CCC[C@@H](NC(=O)c3ccc(O)c(C=O)c3)C2)cc1 [Example 58, (R)—N-(1-(4-(2-(2-Aminopyridin-3-yl)-5-phenyl-3H-imidazo[4,5-b]pyridin-3-yl)benzyl)piperidin-3-yl)-3-formyl-4-hydroxybenzamide]
< 15 nM	Nc1ncccc1-c1nc2ccc(-c3ccccc3)nc2n1-c1ccc(CN2CC[C@@H](NC(=O)c3ccc(O)c(C=O)c3)C2)cc1 [Example 59, (R)—N-(1-(4-(2-(2-aminopyridin-3-yl)-5-phenyl-3H-imidazo[4,5-b]pyridin-3-yl)benzyl)pyrrolidin-3-yl)-3-formyl-4-hydroxybenzamide]
60 to 600 nM	CN(C(=O)c1ccc(C=O)c(O)c1)C1CCN(Cc2ccc(-n3c(-c4cccnc4N)nc4ccc(-c5ccccc5)nc43)cc2)CC1 [Example 60, N-(1-(4-(2-(2-Aminopyridin-3-yl)-5-phenyl-3H-imidazo[4,5-b]pyridin-3-yl)benzyl)piperidin-4-yl)-4-formyl-3-hydroxy-N-methylbenzamide]
15 to 60 nM	Nc1ncccc1-c1nc2ccc(-c3ccccc3)nc2n1-c1ccc(CN2CC(NC(=O)c3ccc(O)c(C=O)c3)C2)cc1 [Example 61, N-(1-(4-(2-(2-Aminopyridin-3-yl)-5-phenyl-3H-imidazo[4,5-b]pyridin-3-yl)benzyl)azetidin-3-yl)-3-formyl-4-hydroxybenzamide]
< 15 nM	Nc1ncccc1-c1nc2ccc(-c3ccccc3)nc2n1-c1ccc(CN2CC3(C2)CN(C(=O)c2ccc(O)c(C=O)c2)C3)cc1 [Example 62, 5-(6-(4-(2-(2-Aminopyridin-3-yl)-5-phenyl-3H-imidazo[4,5-b]pyridin-3-yl)benzyl)-2,6-diazaspiro[3.3]heptane-2-carbonyl)-2-hydroxybenzaldehyde]
60 to 600 nM	Nc1ncccc1-c1nc2ccc(-c3ccccc3)nc2n1-c1ccc(CN2CCC[C@@H](NC(=O)c3ccc(C=O)c(O)c3)C2)cc1 [Example 63, (R)—N-(1-(4-(2-(2-Aminopyridin-3-yl)-5-phenyl-3H-imidazo[4,5-b]pyridin-3-yl)benzyl)piperidin-3-yl)-4-formyl-3-hydroxybenzamide]
60 to 600 nM	Nc1ncccc1-c1nc2ccc(-c3ccccc3)nc2n1-c1ccc(CN2CC[C@@H](NC(=O)c3ccc(C=O)c(O)c3)C2)cc1 [Example 64, (R)—N-(1-(4-(2-(2-Aminopyridin-3-yl)-5-phenyl-3H-imidazo[4,5-b]pyridin-3-yl)benzyl)pyrrolidin-3-yl)-4-formyl-3-hydroxybenzamide]
